# Reference: patent US20230017045A1, “PYRIDINE AND PYRIMIDINE CARBOXYLATE HERBICIDES AND METHODS OF USE THEREOF” (Dow AgroSciences LLC, priority 2017, published 2023)
# Tested on: test plant species
# Test: Post-emergent herbicidal activity test (greenhouse, foliar spray, visual growth reduction)
# Format: in vivo
# Details: post-emergence, 336 h, ECHCG: barnyardgrass (Echinochloa crus-galli), 140 g ai/ha, 14 days after application, read-out: Visual Growth Reduction (%) 14 Days After Application, ECHCG
# Protocol: Post-emergent Test: Seeds or nutlets of the desired test plant species were planted in Sun Gro Metro-Mix® 360 planting mixture, which typically has a pH of 6.0 to 6.8 and an organic matter content of about 30 percent, in plastic pots with a surface area of 64 square centimeters. In some aspects, to ensure good germination and healthy plants, a fungicide treatment and/or other chemical or physical treatment was applied. The plants were grown for 7-21 d in a greenhouse with an approximate 15 h photoperiod which was maintained at 23-29° C. during the day and 22-28° C. during the night. Nutrients and water were added on a regular basis and supplemental lighting was provided with overhead metal halide 1000-Watt lamps as necessary. Plants were used for testing when they reached the first or second true leaf stage. A weighed amount, determined by the highest rate to be tested, of each test compound was placed in a 25 mL glass vial and was dissolved in 4 mL of a 97:3 v/v mixture of acetone and DMSO to obtain concentrated stock solutions. […] The concentrated stock solutions obtained were diluted with 20 mL of an aqueous mixture containing acetone, water, isopropyl alcohol, DMSO, […] crop oil concentrate, and X-77 surfactant in a 48.5:39:10:1.5:1.0:0.02 v/v ratio to obtain spray solutions containing the application rate. Compound requirements are based upon a 12 mL application volume at a rate of 187 liters per hectare (L/ha). Formulated compounds were applied to the plant material with an overhead Mandel track sprayer equipped with […] nozzles calibrated to deliver 187 L/ha over an application area of 0.64 square meters at a spray height of 18 inches (43 cm) above the average plant canopy height. Control plants were sprayed in the same manner with the solvent blank. The treated plants and control plants were placed in a greenhouse as described above and watered by subirrigation to prevent wash-off of the test compounds. After 14 d, the condition of the test plants as compared with that of the nontreated and control plants was determined visually and scored on a scale of 0 to 100 percent where 0 corresponds to no injury and 100 corresponds to complete control. In the reporting of the results, Table A: Percent Growth Reduction Conversion Table was used.
row,SMILES,pest or weed control at 140 g/ha [%]
1,"COC(=O)c1nc(-c2ccc(F)c3c2OC(F)(F)O3)c(F)cc1Cl [F234, Methyl 3-chloro-5-fluoro-6-(2,2,7-trifluorobenzo[d][1,3]dioxol-4-yl)picolinate]",0 to 29
2,"C=Cc1cc(C(F)(F)F)cc(Cl)c1-c1ccc(Cl)c(C(=O)O)n1 [F222, 3-Chloro-6-(2-chloro-4-(trifluoromethyl)-6-vinylphenyl) picolinic acid]",60 to 74

# Same assay, conditions: post-emergence, 336 h, IPOHE: ivy-leaf morning glory (Ipomoea hederacea), 140 g ai/ha, 14 days after application, read-out: Visual Growth Reduction (%) 14 Days After Application, IPOHE
row,SMILES,pest or weed control at 140 g/ha [%]
1,"COC(=O)c1nc(-c2ccc(F)c3c2OC(F)(F)O3)c(F)cc1Cl [F234, Methyl 3-chloro-5-fluoro-6-(2,2,7-trifluorobenzo[d][1,3]dioxol-4-yl)picolinate]",60 to 74
2,"C=Cc1cc(C(F)(F)F)cc(Cl)c1-c1ccc(Cl)c(C(=O)O)n1 [F222, 3-Chloro-6-(2-chloro-4-(trifluoromethyl)-6-vinylphenyl) picolinic acid]",95 to 100

# Same assay, conditions: post-emergence, 336 h, KCHSC: kochia (Bassia scoparia), 140 g ai/ha, 14 days after application, read-out: Visual Growth Reduction (%) 14 Days After Application, KCHSC
row,SMILES,pest or weed control at 140 g/ha [%]
1,"COC(=O)c1nc(-c2ccc(F)c3c2OC(F)(F)O3)c(F)cc1Cl [F234, Methyl 3-chloro-5-fluoro-6-(2,2,7-trifluorobenzo[d][1,3]dioxol-4-yl)picolinate]",0 to 29
2,"C=Cc1cc(C(F)(F)F)cc(Cl)c1-c1ccc(Cl)c(C(=O)O)n1 [F222, 3-Chloro-6-(2-chloro-4-(trifluoromethyl)-6-vinylphenyl) picolinic acid]",45 to 59

# Same assay, conditions: post-emergence, 336 h, ORYSA: rice (Oryza sativa), 140 g ai/ha, 14 days after application, read-out: Visual Growth Reduction (%) 14 Days After Application, ORYSA
row,SMILES,pest or weed control at 140 g/ha [%]
1,"COC(=O)c1nc(-c2ccc(F)c3c2OC(F)(F)O3)c(F)cc1Cl [F234, Methyl 3-chloro-5-fluoro-6-(2,2,7-trifluorobenzo[d][1,3]dioxol-4-yl)picolinate]",0 to 29
2,"C=Cc1cc(C(F)(F)F)cc(Cl)c1-c1ccc(Cl)c(C(=O)O)n1 [F222, 3-Chloro-6-(2-chloro-4-(trifluoromethyl)-6-vinylphenyl) picolinic acid]",0 to 29

# Same assay, conditions: post-emergence, 336 h, SETFA: giant foxtail (Setaria faberi), 140 g ai/ha, 14 days after application, read-out: Visual Growth Reduction (%) 14 Days After Application, SETFA
row,SMILES,pest or weed control at 140 g/ha [%]
1,"COC(=O)c1nc(-c2ccc(F)c3c2OC(F)(F)O3)c(F)cc1Cl [F234, Methyl 3-chloro-5-fluoro-6-(2,2,7-trifluorobenzo[d][1,3]dioxol-4-yl)picolinate]",0 to 29
2,"C=Cc1cc(C(F)(F)F)cc(Cl)c1-c1ccc(Cl)c(C(=O)O)n1 [F222, 3-Chloro-6-(2-chloro-4-(trifluoromethyl)-6-vinylphenyl) picolinic acid]",30 to 44

# Same assay, conditions: post-emergence, 336 h, SORVU: grain sorghum (Sorghum vulgare), 140 g ai/ha, 14 days after application, read-out: Visual Growth Reduction (%) 14 Days After Application, SORVU
row,SMILES,pest or weed control at 140 g/ha [%]
1,"COC(=O)c1nc(-c2ccc(F)c3c2OC(F)(F)O3)c(F)cc1Cl [F234, Methyl 3-chloro-5-fluoro-6-(2,2,7-trifluorobenzo[d][1,3]dioxol-4-yl)picolinate]",0 to 29
2,"C=Cc1cc(C(F)(F)F)cc(Cl)c1-c1ccc(Cl)c(C(=O)O)n1 [F222, 3-Chloro-6-(2-chloro-4-(trifluoromethyl)-6-vinylphenyl) picolinic acid]",75 to 84

# Same assay, conditions: post-emergence, 336 h, STEME: common chickweed (Stellaria media), 140 g ai/ha, 14 days after application, read-out: Visual Growth Reduction (%) 14 Days After Application, STEME
row,SMILES,pest or weed control at 140 g/ha [%]
1,"COC(=O)c1nc(-c2ccc(F)c3c2OC(F)(F)O3)c(F)cc1Cl [F234, Methyl 3-chloro-5-fluoro-6-(2,2,7-trifluorobenzo[d][1,3]dioxol-4-yl)picolinate]",0 to 29
2,"C=Cc1cc(C(F)(F)F)cc(Cl)c1-c1ccc(Cl)c(C(=O)O)n1 [F222, 3-Chloro-6-(2-chloro-4-(trifluoromethyl)-6-vinylphenyl) picolinic acid]",0 to 29

# Same assay, conditions: post-emergence, 336 h, TRZAS: wheat, spring (Triticum aestivum), 140 g ai/ha, 14 days after application, read-out: Visual Growth Reduction (%) 14 Days After Application, TRZAS
row,SMILES,pest or weed control at 140 g/ha [%]
1,"COC(=O)c1nc(-c2ccc(F)c3c2OC(F)(F)O3)c(F)cc1Cl [F234, Methyl 3-chloro-5-fluoro-6-(2,2,7-trifluorobenzo[d][1,3]dioxol-4-yl)picolinate]",0 to 29
2,"C=Cc1cc(C(F)(F)F)cc(Cl)c1-c1ccc(Cl)c(C(=O)O)n1 [F222, 3-Chloro-6-(2-chloro-4-(trifluoromethyl)-6-vinylphenyl) picolinic acid]",45 to 59

# Same assay, conditions: post-emergence, 336 h, blackgrass (Alopecurus myosuroides), 14 Days After Application, 140 g ai/ha, read-out: Visual Growth Reduction (%) ALOMY
row,SMILES,pest or weed control at 140 g/ha [%]
1,"COC(=O)c1nc(-c2ccc(F)c3c2OC(F)(F)O3)c(F)cc1Cl [F234, Methyl 3-chloro-5-fluoro-6-(2,2,7-trifluorobenzo[d][1,3]dioxol-4-yl)picolinate]",0 to 29
2,"C=Cc1cc(C(F)(F)F)cc(Cl)c1-c1ccc(Cl)c(C(=O)O)n1 [F222, 3-Chloro-6-(2-chloro-4-(trifluoromethyl)-6-vinylphenyl) picolinic acid]",0 to 29

# Same assay, conditions: post-emergence, 336 h, canada thistle (Cirsium arvense), 14 Days After Application, 140 g ai/ha, read-out: Visual Growth Reduction (%) CIRAR
row,SMILES,pest or weed control at 140 g/ha [%]
1,"COC(=O)c1nc(-c2ccc(F)c3c2OC(F)(F)O3)c(F)cc1Cl [F234, Methyl 3-chloro-5-fluoro-6-(2,2,7-trifluorobenzo[d][1,3]dioxol-4-yl)picolinate]",0 to 29
2,"C=Cc1cc(C(F)(F)F)cc(Cl)c1-c1ccc(Cl)c(C(=O)O)n1 [F222, 3-Chloro-6-(2-chloro-4-(trifluoromethyl)-6-vinylphenyl) picolinic acid]",85 to 94

# Same assay, conditions: post-emergence, 336 h, crabgrass (Digitaria sanguinalis), 14 Days After Application, 140 g ai/ha, read-out: Visual Growth Reduction (%) DIGSA
row,SMILES,pest or weed control at 140 g/ha [%]
1,"COC(=O)c1nc(-c2ccc(F)c3c2OC(F)(F)O3)c(F)cc1Cl [F234, Methyl 3-chloro-5-fluoro-6-(2,2,7-trifluorobenzo[d][1,3]dioxol-4-yl)picolinate]",30 to 44
2,"C=Cc1cc(C(F)(F)F)cc(Cl)c1-c1ccc(Cl)c(C(=O)O)n1 [F222, 3-Chloro-6-(2-chloro-4-(trifluoromethyl)-6-vinylphenyl) picolinic acid]",75 to 84

# Same assay, conditions: post-emergence, 336 h, lambsquarters (Chenopodium album), 14 Days After Application, 140 g ai/ha, read-out: Visual Growth Reduction (%) CHEAL
row,SMILES,pest or weed control at 140 g/ha [%]
1,"COC(=O)c1nc(-c2ccc(F)c3c2OC(F)(F)O3)c(F)cc1Cl [F234, Methyl 3-chloro-5-fluoro-6-(2,2,7-trifluorobenzo[d][1,3]dioxol-4-yl)picolinate]",30 to 44
2,"C=Cc1cc(C(F)(F)F)cc(Cl)c1-c1ccc(Cl)c(C(=O)O)n1 [F222, 3-Chloro-6-(2-chloro-4-(trifluoromethyl)-6-vinylphenyl) picolinic acid]",75 to 84

# Same assay, conditions: post-emergence, 336 h, redroot pigweed (Amaranthus retroflexus), 14 Days After Application, 140 g ai/ha, read-out: Visual Growth Reduction (%) AMARE
row,SMILES,pest or weed control at 140 g/ha [%]
1,"COC(=O)c1nc(-c2ccc(F)c3c2OC(F)(F)O3)c(F)cc1Cl [F234, Methyl 3-chloro-5-fluoro-6-(2,2,7-trifluorobenzo[d][1,3]dioxol-4-yl)picolinate]",0 to 29
2,"C=Cc1cc(C(F)(F)F)cc(Cl)c1-c1ccc(Cl)c(C(=O)O)n1 [F222, 3-Chloro-6-(2-chloro-4-(trifluoromethyl)-6-vinylphenyl) picolinic acid]",75 to 84

# Same assay, conditions: post-emergence, 336 h, wild oat (Avena fatua), 14 Days After Application, 140 g ai/ha, read-out: Visual Growth Reduction (%) AVEFA
row,SMILES,pest or weed control at 140 g/ha [%]
1,"COC(=O)c1nc(-c2ccc(F)c3c2OC(F)(F)O3)c(F)cc1Cl [F234, Methyl 3-chloro-5-fluoro-6-(2,2,7-trifluorobenzo[d][1,3]dioxol-4-yl)picolinate]",0 to 29
2,"C=Cc1cc(C(F)(F)F)cc(Cl)c1-c1ccc(Cl)c(C(=O)O)n1 [F222, 3-Chloro-6-(2-chloro-4-(trifluoromethyl)-6-vinylphenyl) picolinic acid]",0 to 29

# Same assay, conditions: post-emergence, 336 h, yellow nutsedge (Cyperus esculentus), 14 Days After Application, 140 g ai/ha, read-out: Visual Growth Reduction (%) CYPES
row,SMILES,pest or weed control at 140 g/ha [%]
1,"COC(=O)c1nc(-c2ccc(F)c3c2OC(F)(F)O3)c(F)cc1Cl [F234, Methyl 3-chloro-5-fluoro-6-(2,2,7-trifluorobenzo[d][1,3]dioxol-4-yl)picolinate]",0 to 29
2,"C=Cc1cc(C(F)(F)F)cc(Cl)c1-c1ccc(Cl)c(C(=O)O)n1 [F222, 3-Chloro-6-(2-chloro-4-(trifluoromethyl)-6-vinylphenyl) picolinic acid]",0 to 29
